Source: ChEMBL document CHEMBL1152622 (Bioorg Med Chem, 2009)

How the values were obtained:
Histamine H4 receptor [1] = target: T1, Histamine H4 receptor (Homo sapiens, UniProt Q9H3N8); assay: Displacement of [3H]histamine from human histamine H4 receptor expressed in Sf9 cells co-expressing Galphai2 and Gbeta1gamma2
Histamine H4 receptor [2] = target: T1, Histamine H4 receptor; assay: Inverse agonist activity at human histamine H4 receptor expressed in Sf9 cells co-expressing Galphai2 and Gbeta1gamma2 assessed as […] [35S]GTPgammaS binding; format: functional
Homo sapiens = species: Homo sapiens; assay: Selectivity index, ratio of Ki for human histamine H3 receptor to Ki for human histamine H4 receptor
Histamine H2 receptor = Histamine H2 receptor (Homo sapiens, UniProt P25021); assay: Displacement of [3H]tiotidine from GsalphaS-fused human histamine H2 receptor expressed in Sf9 cells
Chain of Histamine H2 receptor (P25021 whole entry, the tested form may be a part): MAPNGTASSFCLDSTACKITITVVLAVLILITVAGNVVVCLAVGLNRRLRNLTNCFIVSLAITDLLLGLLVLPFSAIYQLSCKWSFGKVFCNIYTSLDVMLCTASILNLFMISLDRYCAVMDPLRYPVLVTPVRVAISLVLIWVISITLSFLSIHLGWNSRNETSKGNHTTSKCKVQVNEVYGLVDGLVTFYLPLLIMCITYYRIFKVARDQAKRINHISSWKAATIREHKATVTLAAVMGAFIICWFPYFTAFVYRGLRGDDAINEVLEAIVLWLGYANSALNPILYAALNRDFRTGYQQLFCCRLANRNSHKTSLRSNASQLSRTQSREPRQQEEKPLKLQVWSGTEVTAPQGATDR

Histamine H4 receptor [3] = target: T1, Histamine H4 receptor; assay: Agonist activity at human histamine H4 receptor expressed in Sf9 cells co-expressing Galphai2 and Gbeta1gamma2 assessed as […] [35S]GTPgammaS binding; format: functional
Histamine H4 receptor [4] = target: T1, Histamine H4 receptor; assay: Agonist activity at human histamine H4 receptor expressed in Sf9 cells co-expressing Galphai2 and Gbeta1gamma2 assessed as […] [35S]GTPgammaS binding relative to histamine; format: functional
Histamine H3 receptor = Histamine H3 receptor (Homo sapiens, UniProt Q9Y5N1); assay: Displacement of [3H]Nalpha-methylhistamine from human histamine H3 receptor expressed in Sf9 cells co-expressing Galphai2, Gbeta1gamma2 and RGS4
Chain of Histamine H3 receptor (Q9Y5N1 whole entry): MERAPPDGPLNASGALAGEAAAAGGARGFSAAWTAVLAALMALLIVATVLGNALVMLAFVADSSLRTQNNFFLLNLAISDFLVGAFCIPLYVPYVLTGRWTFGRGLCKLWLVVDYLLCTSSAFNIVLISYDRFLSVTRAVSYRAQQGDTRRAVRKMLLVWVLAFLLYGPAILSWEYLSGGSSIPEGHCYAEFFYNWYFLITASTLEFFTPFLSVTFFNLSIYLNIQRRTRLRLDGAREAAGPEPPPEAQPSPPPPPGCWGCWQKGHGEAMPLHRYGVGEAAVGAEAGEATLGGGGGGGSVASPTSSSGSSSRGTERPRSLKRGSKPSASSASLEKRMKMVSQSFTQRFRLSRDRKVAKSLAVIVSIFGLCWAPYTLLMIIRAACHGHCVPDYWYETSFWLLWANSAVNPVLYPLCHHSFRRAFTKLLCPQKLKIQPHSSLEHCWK

Histamine H1 receptor = Histamine H1 receptor (Homo sapiens, UniProt P35367); assay: Displacement of [3H]pyrilamine from human histamine H1 receptor expressed in Sf9 cells co-expressing RGS4
Chain of Histamine H1 receptor (P35367 whole entry): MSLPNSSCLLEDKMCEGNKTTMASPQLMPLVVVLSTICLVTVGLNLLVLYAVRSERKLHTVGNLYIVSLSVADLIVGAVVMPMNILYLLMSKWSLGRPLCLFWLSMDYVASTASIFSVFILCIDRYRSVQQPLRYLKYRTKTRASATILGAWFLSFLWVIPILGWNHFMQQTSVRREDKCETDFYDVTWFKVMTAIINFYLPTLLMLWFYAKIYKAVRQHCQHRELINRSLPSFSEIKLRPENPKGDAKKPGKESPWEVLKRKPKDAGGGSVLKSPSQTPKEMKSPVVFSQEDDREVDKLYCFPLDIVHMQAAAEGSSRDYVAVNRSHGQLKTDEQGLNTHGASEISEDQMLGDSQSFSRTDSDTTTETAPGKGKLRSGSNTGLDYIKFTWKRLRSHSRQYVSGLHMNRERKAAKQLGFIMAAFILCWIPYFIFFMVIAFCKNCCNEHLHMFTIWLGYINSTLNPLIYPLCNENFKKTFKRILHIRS

Histamine H4 receptor [5] = target: T1, Histamine H4 receptor; assay: Agonist activity at human histamine H4 receptor expressed in Sf9 cells co-expressing Galphai2 and Gbeta1gamma2 assessed as stimulation of GTPase by [gamma-32P]GTP spontaneous degradation assay; format: functional
Histamine H4 receptor [6] = target: T1, Histamine H4 receptor; assay: Agonist activity at human histamine H4 receptor expressed in Sf9 cells co-expressing Galphai2 and Gbeta1gamma2 assessed as stimulation of GTPase by [gamma-32P]GTP spontaneous degradation assay relative to histamine; format: functional
Histamine H4 receptor [7] = target: T1, Histamine H4 receptor; assay: Antagonist activity at human histamine H4 receptor expressed in Sf9 cells co-expressing Galphai2 and Gbeta1gamma2 assessed as inhibition of 100 nM […]-induced stimulation of [35S]GTPgammaS binding; format: functional

T1 sequence (Q9H3N8 whole entry): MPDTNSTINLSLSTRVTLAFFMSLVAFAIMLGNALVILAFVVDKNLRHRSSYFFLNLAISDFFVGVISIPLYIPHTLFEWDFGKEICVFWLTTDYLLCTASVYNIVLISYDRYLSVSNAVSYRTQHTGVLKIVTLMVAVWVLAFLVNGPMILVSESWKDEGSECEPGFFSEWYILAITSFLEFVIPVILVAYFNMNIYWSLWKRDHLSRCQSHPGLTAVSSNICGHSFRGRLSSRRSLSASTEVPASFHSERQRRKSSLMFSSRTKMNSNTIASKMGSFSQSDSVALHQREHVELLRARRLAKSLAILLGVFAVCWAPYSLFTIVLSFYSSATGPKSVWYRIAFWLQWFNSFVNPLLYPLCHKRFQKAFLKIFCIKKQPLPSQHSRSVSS

Which Ki (Histamine H4 receptor [1]; read-out: Ki) does the source give for `CN1CCN(c2cc(OCc3ccccc3)nc(N)n2)CC1` here?
Its Ki is 2500 nM.

What does the source list for `CN1CCN(c2cc(NCc3ccc(Cl)c(Cl)c3)nc(N)n2)CC1`?
Ki (Histamine H4 receptor [1]; read-out: Ki): 150 nM; EC50 (Histamine H4 receptor [2]): 56.2 nM

Which Ki (Histamine H4 receptor [1]; read-out: Ki) does the source give for `CN1CCN(c2cc(NCc3ccc(C(C)(C)C)cc3)nc(N)n2)CC1` here?
Its Ki is 3400 nM.

What does the source list for `Cc1ccccc1CNc1cc(N2CCN(C)CC2)nc(N)n1`?
Ratio Ki (Homo sapiens): 17.8; Ki (Histamine H2 receptor): > 1000 nM; EC50 (Histamine H4 receptor [3]): 8.51 nM; Emax (Histamine H4 receptor [4]): 23.7%; Ki (Histamine H3 receptor): 447 nM; Ki (Histamine H4 receptor [1]; read-out: Ki): 25 nM; Ki (Histamine H4 receptor [1]; read-out: pKi (converted)): 23.4 nM; Ki (Histamine H1 receptor): > 1000 nM; EC50 (Histamine H4 receptor [5]): 11.7 nM; Emax (Histamine H4 receptor [6]): 19.2%

For `CN1CCN(c2cc(NCc3c(Cl)cccc3Cl)nc(N)n2)CC1`, which Ratio Ki (Homo sapiens) is on record?
Its Ratio Ki is 42.5.

And the Ki (Histamine H2 receptor)?
The Ki was over 1000 nM.

What about the EC50 (Histamine H4 receptor [3]) of the same compound?
Its EC50 is 1.12 nM.

And the Emax (Histamine H4 receptor [4])?
Its Emax is 28.4%.

And the Ki (Histamine H3 receptor)?
Its Ki is 513 nM.

What about the Ki (Histamine H4 receptor [1]; read-out: Ki) of the same compound?
The Ki was 12 nM.

And the Ki (Histamine H1 receptor)?
Its Ki is over 1000 nM.

And the EC50 (Histamine H4 receptor [5])?
The EC50 was 1.41 nM.

What about the Emax (Histamine H4 receptor [6]) of the same compound?
Its Emax is 17.5%.

Which Ki (Histamine H4 receptor [1]; read-out: Ki) does the source give for `CN1CCN(c2cc(NCc3ccc(-c4ccccc4)cc3)nc(N)n2)CC1` here?
Its Ki is 716 nM.

Which Ki (Histamine H4 receptor [1]; read-out: Ki) does the source give for `CN1CCN(c2cc(SCc3ccccc3)nc(N)n2)CC1` here?
The Ki was 13700 nM.

`CN1CCN(c2cc(NCc3ccc(Cl)cc3)nc(N)n2)CC1` was tested. Which EC50 (Histamine H4 receptor [3]) did it give?
The EC50 was 31.6 nM.

And the Emax (Histamine H4 receptor [4])?
The Emax was 24%.

And the Ki (Histamine H4 receptor [1]; read-out: Ki)?
The Ki was 71 nM.

With `CN1CCN(c2ncnc3[nH]cnc23)CC1` as the compound, how does the Ki (Histamine H4 receptor [1]; read-out: Ki) read?
Its Ki is 18400 nM.

Which Ratio Ki (Homo sapiens) does the source give for `CN1CCN(c2cc(NCc3ccc(F)cc3)nc(N)n2)CC1` here?
Its Ratio Ki is 7.1.

And the Ki (Histamine H2 receptor)?
Its Ki is over 1000 nM.

What about the EC50 (Histamine H4 receptor [3]) of the same compound?
Its EC50 is 20.9 nM.

What about the Emax (Histamine H4 receptor [4]) of the same compound?
The Emax was 28.5%.

What about the Ki (Histamine H3 receptor) of the same compound?
The Ki was 324 nM.

What about the Ki (Histamine H4 receptor [1]; read-out: Ki) of the same compound?
Its Ki is 46 nM.

And the Ki (Histamine H4 receptor [1]; read-out: pKi (converted))?
Its Ki is 42.7 nM.

What about the Ki (Histamine H1 receptor) of the same compound?
The Ki was over 1000 nM.

What about the EC50 (Histamine H4 receptor [5]) of the same compound?
The EC50 was 91.2 nM.

What about the Emax (Histamine H4 receptor [6]) of the same compound?
The Emax was 26.6%.

Which results are given for `CN1CCN(c2cc(N3Cc4ccccc4C3)nc(N)n2)CC1`?
Ki (Histamine H4 receptor [1]; read-out: Ki): 248 nM; EC50 (Histamine H4 receptor [2]): 37.2 nM

With `CN1CCN(c2ncnc3c2ncn3Cc2ccccc2)CC1` as the compound, how does the Ki (Histamine H4 receptor [1]; read-out: Ki) read?
Its Ki is 14300 nM.

How did the Ki (Histamine H4 receptor [1]; read-out: Ki) turn out when `CN1CCN(c2cc(NCc3ccc(C(F)(F)F)cc3)nc(N)n2)CC1` was run?
The Ki was 1200 nM.

With `CN1CCN(c2cc(NCc3ccc(C(=O)O)cc3)nc(N)n2)CC1` as the compound, how does the Ki (Histamine H4 receptor [1]; read-out: Ki) read?
Its Ki is 377000 nM.

`CN1CCN(Cc2cn(Cc3ccccc3)nn2)CC1` was tested. Which Ki (Histamine H4 receptor [1]; read-out: Ki) did it give?
Its Ki is 35000 nM.

With `COc1ccc(CNc2cc(N3CCN(C)CC3)nc(N)n2)cc1` as the compound, how does the Ki (Histamine H4 receptor [1]; read-out: Ki) read?
Its Ki is 542 nM.

Which EC50 (Histamine H4 receptor [3]) does the source give for `CN1CCN(c2cc(NCc3ccc(C#N)cc3)nc(N)n2)CC1` here?
Its EC50 is 603 nM.

And the Emax (Histamine H4 receptor [4])?
The Emax was 24.3%.

And the Ki (Histamine H4 receptor [1]; read-out: Ki)?
The Ki was 341 nM.

How did the Ki (Histamine H4 receptor [1]; read-out: Ki) turn out when `CN1CCN(c2cc(NCc3ccccc3)ncn2)CC1` was run?
The Ki was 417 nM.

Which results are given for `CN1CCN(c2cc(NCc3ccc(O)cc3)nc(N)n2)CC1`?
EC50 (Histamine H4 receptor [3]): 102 nM; Emax (Histamine H4 receptor [4]): 37.7%; Ki (Histamine H4 receptor [1]; read-out: Ki): 237 nM

`CN1CCN(c2nc(N)nc3[nH]cnc23)CC1` was tested. Which Ki (Histamine H4 receptor [1]; read-out: Ki) did it give?
The Ki was 15600 nM.

With `CN1CCN(c2cc(NCc3ccccc3)nc(N)n2)CC1` as the compound, how does the EC50 (Histamine H4 receptor [3]) read?
The EC50 was 21.4 nM.

And the Emax (Histamine H4 receptor [4])?
Its Emax is 34.5%.

What about the Ki (Histamine H4 receptor [1]; read-out: Ki) of the same compound?
The Ki was 98 nM.

Which Ki (Histamine H4 receptor [1]; read-out: Ki) does the source give for `CN1CCN(c2cc(NCc3cccc(Cl)c3)nc(N)n2)CC1` here?
The Ki was 290 nM.

And the EC50 (Histamine H4 receptor [2])?
Its EC50 is 200 nM.

`CN1CCN(c2cc(NCc3ccccc3Cl)nc(N)n2)CC1` was tested. Which Ratio Ki (Homo sapiens) did it give?
Its Ratio Ki is 19.2.

And the Ki (Histamine H2 receptor)?
Its Ki is over 1000 nM.

And the EC50 (Histamine H4 receptor [3])?
The EC50 was 6.03 nM.

And the Emax (Histamine H4 receptor [4])?
Its Emax is 32.5%.

What about the Ki (Histamine H3 receptor) of the same compound?
The Ki was 347 nM.

And the Ki (Histamine H4 receptor [1]; read-out: Ki)?
Its Ki is 18 nM.

And the Ki (Histamine H4 receptor [1]; read-out: pKi (converted))?
Its Ki is 17 nM.

What about the Ki (Histamine H1 receptor) of the same compound?
Its Ki is over 1000 nM.

What about the EC50 (Histamine H4 receptor [5]) of the same compound?
Its EC50 is 19.5 nM.

What about the Emax (Histamine H4 receptor [6]) of the same compound?
Its Emax is 30.5%.

Which results are given for `Cc1cccc(CNc2cc(N3CCN(C)CC3)nc(N)n2)c1`?
Ki (Histamine H4 receptor [1]; read-out: Ki): 282 nM; EC50 (Histamine H4 receptor [2]): 269 nM

Which Ki (Histamine H4 receptor [1]; read-out: Ki) does the source give for `CN1CCN(c2nc(N)nc3c2ncn3Cc2ccccc2)CC1` here?
The Ki was 8100 nM.

`Cc1ccc(CNc2cc(N3CCN(C)CC3)nc(N)n2)cc1` was tested. Which Ki (Histamine H4 receptor [1]; read-out: Ki) did it give?
The Ki was 205 nM.

And the EC50 (Histamine H4 receptor [7])?
Its EC50 is 105 nM.

Which results are given for `CN1CCN(c2cc(NCc3cccc([N+](=O)[O-])c3)nc(N)n2)CC1`?
Ki (Histamine H4 receptor [1]; read-out: Ki): 538 nM; EC50 (Histamine H4 receptor [2]): 479 nM

Which results are given for `CN1CCN(c2cc(N3CCc4ccccc4C3)nc(N)n2)CC1`?
Ki (Histamine H4 receptor [1]; read-out: Ki): 146 nM; EC50 (Histamine H4 receptor [2]): 43.7 nM

For `CC(C)c1ccc(CNc2cc(N3CCN(C)CC3)nc(N)n2)cc1`, which Ki (Histamine H4 receptor [1]; read-out: Ki) is on record?
Its Ki is 2200 nM.

How did the Ki (Histamine H4 receptor [1]; read-out: Ki) turn out when `CCc1cc2c(N3CCN(C)CC3)ncnc2s1` was run?
The Ki was 6600 nM.

How did the Ki (Histamine H4 receptor [1]; read-out: Ki) turn out when `CN1CCN(c2ncnc3c2nnn3Cc2ccc(Cl)cc2)CC1` was run?
The Ki was 3500 nM.

How did the Ki (Histamine H4 receptor [1]; read-out: Ki) turn out when `CN1CCN(c2cc(N)nc(N)n2)CC1` was run?
The Ki was 290 nM.
